Details of data set [1]: method as in PMID 22963731, PMID 23444784, PMID 33551991, PMID 17720549, PMID 15728733. Particulars: therapeutic peptides delivered to the brain via the intranasal route; cited from earlier work.
Data set [2] relates to bEnd.3 murine endothelial cells (bEnd.3/C6 co-cultures). The data set is described as follows: Transport through in vitro reconstituted blood–brain barrier (two-compartment chamber). Format: in vitro ADME, mouse. Particulars: for Transendothelial transport through the blood–brain barrier: bEnd.3/C6 model, donor basal to acceptor apical compartment. On the procedure:
An in vitro model of the blood–brain barrier was reconstituted with bEnd.3 murine endothelial cells obtained from the American Type Culture Collection (ATCC, Manassas, VA, USA) ref. bEnd.3 [BEND3] (ATCC CRL-2299). These cells were cultured in chambers with two compartments separated by a filter with a porosity of 0.4 µm (Corning-Transwell, Dominique Dutscher, Bernolsheim, France). The cells were seeded at a density of 50,000 cells per individual filter and cultured in a growth medium containing 10% fetal calf serum. After an initial spreading step, the bEnd.3 cells colonized the entire surface available on the filter, thus reconstituting a functional endothelium. At this stage, the cells established tight junctions preventing the passage of molecules and ions. In order to improve the differentiation of bEnd.3 cells, we also set up two coculture systems: [bEnd.3 + astrocytes (CTX cells)] and [bEnd.3 + glioma (C6 cells)]. In these cases, the glial cells were seeded in the basal compartment (non-contact model) and co-cultured for 6 days before using bEnd.3 cell monolayers for transport experiments. The impermeability of each of these cellular barriers was assessed by transendothelial resistance measurements with a Voltmeter-Ohmmeter Millicell-ERS (Merck-Millipore, Burlington, MA, USA). […] All experiments were performed 6 times.

A short description of data set [3]: Pharmacokinetics in rat blood and brain after intranasal or intravenous administration.
Text: (§3) Male and female Sprague Dawley rats, 6 weeks old at receipt, weighing around 300 g at the beginning of the experiments were used for pharmacokinetics studies. The animals that were included in these experiments were naïve to the previous administration of drugs. The acclimatization of rats lasted at least 5 days. Animals had free access to food (RM1, SDS Dietex) and drinking water ad libitum. […] The protocol used by Syncrosome was approved by an Animal Ethical Committee (French National Committee N°71) and by the Higher Education and Research Ministry (#2015070314429284_v2). […] Every effort was done to minimize animal suffering and to reduce the number of animals used in the experiments in compliance with the ARRIVE guidelines.
(§4) One compound formulation at one dose for each route of administration was tested during the present study. The data were treated with the PKsolver add-in of Excel [125].
(§5) Anesthetized (ketamine/medetomidine or isoflurane 4% for induction and then 2.5%) rats were treated intravenously once. The final volume of administration was 0.5 mL/kg (100 mg/kg body weight). As soon as the administration was performed (t0), a timer was started.
(§6) A catheter was introduced into each nostril of the rat with a depth of 7 mm [126]. Anesthetized (ketamine/medetomidine or isoflurane 4% for induction and then 2.5%) rats were treated once. The volume of administration was 10 μL/nostril (20 μL per rat, 12 mg/kg body weight). As soon as the administration was performed (t0), a timer was started.
(§7) Blood samples of 2 mL were collected through direct intracardiac puncture and separated on two K3-EDTA Greiner Bio-One tubes of 1 mL (ref. 454034A, Dominique Dutscher, Bernolsheim, France). A 100× solution of protease inhibitors (ref. 1862209, ThermoScientific, Waltham, MA, USA) was added immediately after sampling (10 μL/tube). The first tube of the blood sample was then separated in 2 samples with different procedures (with and without sonication) and the other one was used for plasma preparation.
(§8) Brains were collected immediately after blood collection, split in 2 hemispheres, and then transferred into Eppendorf tubes. Brain samples were placed into crushed dry ice for several minutes and frozen at −80 °C. When indicated, the rats were transcardially perfused with a solution of phosphate-buffered saline (PBS) for 10 min with a flow rate of 40 mL/min to remove blood in the brain tissue. A subcutaneous administration of buprenorphine (0.03 mg/kg) was performed at least 30 min prior to transcardial perfusion.
(§9) For blood and serum stability and for pharmacokinetics studies, blood and plasma samples (200 µL) were incubated with 3 volumes of methanol for 30 min at 4 °C and then centrifuged at 4 °C for 5 min (16,000× g). Supernatants were stored at −20 °C before analysis. Brain homogenates were prepared at 4 °C in PBS containing 1 mM EDTA and protease inhibitors (ref. 1862209, ThermoScientific, Waltham, MA, USA) in a glass Potter homogenizer. Homogenate samples (600 µL) were incubated with 3 volumes of methanol for 30 min at 4 °C and centrifuged at 4 °C for 5 min (16,000× g). Supernatants were evaporated under nitrogen flux and then diluted in 100 µL of 0.1% formic acid in water.
(§10) The concentrations of intact AmyP53 in biological samples were determined by liquid chromatography–mass spectrometry (Acquity iClass-Vion LC-MS; Waters, Guyancourt, France).
For data set [4] the following is noted: cited from earlier work.
Data set [5] is described as follows: In vitro stability in rat whole blood (LC–MS). The data set is classed as in vitro ADME. On the procedure:
(§1) Supernatants were stored at −20 °C before analysis.
(§2) AmyP53 in water solution (300 µM) was mixed with rat blood (obtained from Syncrosome, Marseille, France), or commercial human serum (Sigma-Aldrich, St. Louis, MO, USA). AmyP53 concentrations were then determined by LC–MS at the indicated times after extraction, as detailed above.

The conditions of data set [6]: rat, in vivo.
Text: as §3, §4, §5, §6, §7, §8, §9, §10
Data set [7] can be described thus: Chemical stability of aqueous solution upon storage (LC–MS). Format: physicochemical. As to conditions: 1 mM in pure water, stored 18 months at 4 °C, 20 °C and 45 °C. On the procedure:
AmyP53 samples (1 mM in water) were stored at 4 °C, 20 °C, and 45 °C in sealed Eppendorf tubes and analyzed at different time points for chemical integrity (LC-MS method) and biological activity (binding to ganglioside GM1). For calibration, different dilutions of the standard solution were injected three times, and the peak area was measured for all three. […] The percentage of recovery was >98%, in full agreement with the certificate analysis of AmyP53 batch # #P190628-LL735654. LC–MS linearity was observed over the 5–100 pmol injected range (R^2 > 0.99). The minimal amount detected was 5 pmol.

Data set [8] can be described thus: Toxicology study, repeated intranasal administration over 7 days. As to conditions: for Behavior (Days 1–7) / Brain Histology / Inflammation at Nostrils / Body Weight (Day 7): rat; for Body Weight (Day 7): mean ± SEM, in g (unit assumed).
Experimental: Male and female Wistar rats (4 animals per group) were treated with the indicated dose of AmyP53, and toxicology studies were conducted as previously described [75]. Statistical analysis was performed with the Kruskal–Wallis test.
Another data set can be described thus: in vivo. As to conditions: both, Sprague Dawley, rat, 12 mg/kg.
Data set [9] in a line: In vitro stability in commercial human serum (LC–MS). Format: in vitro ADME. On the procedure: as §1, §2

Where “and” joins values, the source holds several entries; their conditions need not be identical. Identical values can stand only once. Entries after “also recorded” stand apart in the source; their conditions may differ. Like-named read-outs stand apart in the source and are kept apart here. Ends that are not written are not given here.

Text for in vivo: as §3, §4, §5, §6, §7, §8, §9, §10

As for “EPO: therapeutic peptide delivered to the brain via the intranasal route, 165 aa”, in data set [1], the pHi was 8.7.
As a reminder, the solubility is the concentration that dissolves in the medium under given conditions. As a reminder, the half-life is the time in which the quantity being followed falls by half. One may read the Tmax as the time from dosing to the highest level. Take KEGVLYVGHHTK [AmyP53]: the “Transendothelial transport through the blood–brain barrier” value in data set [2] is “almost as effective as synB3 and more than synB5; also recorded: at least as efficiently as syn B3 and even more than syn B5”. The “Transendothelial resistance during incubation” value in data set [2] (reconstituted blood–brain barrier, incubation with AmyP53) is reported as “remained unchanged”. The “Ratio of AUCIN/AUCiv” value came out at 123% in data set [3] (blood) and 94% in [3] (brain). Further, the solubility in “physchem” was > 146000 µM and > 200000 µg/mL. In addition, the “Inflammatory reaction in the nostrils and the tails” value in [4] (AmyP53-treated rats) is on record as “no inflammatory reaction could be observed”. In addition, the Tolerance result in data set [4] (rats, administered intravenously or intranasally) is “perfect tolerance”. For the same substance, the Undesirable effects result is “no undesirable effect could be detected” in [4] (rats, intranasal administration, doses up to 5 mg/kg body weight) and “no undesirable effect could be detected” in data set [4] (rats, intravenous administration, doses up to 80 mg/kg). For the same substance, the half-life at 300 µM in [5] (rat fresh whole blood, read-out: Half-life time) turned out to be 17 min; in data set [9] (commercial human serum, read-out: Half-life time) it was 5 min. The Detection after incubation entry in data set [5] (rat whole blood, 300 µM, 60 min) was “still detected after 60 min”; in [9] (human serum, 300 µM, 30 min) it was “no longer detected in serum after 30 min”. Besides, the Tmax in [6] (both, Sprague Dawley, 12 mg/kg) was 5 min; in the data set “in vivo” it was 10 min. Further, in data set [6], the “AmyP53 reaching the brain” value is on record as 1.57%. Moreover, the “Efficiency of nose-to-brain delivery versus blood circulation” value in [6] is given as 7.85 fold. In addition, the “Chemical stability in water solution” value in [7] is reported as “remains chemically intact over 18 months; also recorded: remained remarkably stable under all these conditions”. Further, the “Toxicology findings after repeated intranasal injections” value in [8] (male and female Wistar rats, doses up to 5 mg/kg body weight, 7-day period) is “no mortality, no behavioral changes, no body weight loss, and no alterations of brain tissue at autopsy”. Also, the “Behavior (Days 1–7)” value is “NTR NTR” in data set [8] (female, intranasal 0.2 mg/kg); “NTR NTR” in data set [8] (female, intranasal 1.0 mg/kg); “NTR NTR” in [8] (female, intranasal 5.0 mg/kg); “NTR NTR” in [8] (male, intranasal 0.2 mg/kg); “NTR NTR” in data set [8] (male, intranasal 1.0 mg/kg); “NTR NTR” in [8] (male, intranasal 5.0 mg/kg). Also, the “Brain Histology” value in data set [8] (female, intranasal 0.2 mg/kg) is listed as “NTR NTR”; in data set [8] (female, intranasal 1.0 mg/kg), “NTR NTR”; in data set [8] (female, intranasal 5.0 mg/kg), “NTR NTR”; in data set [8] (male, intranasal 0.2 mg/kg) it was “NTR NTR”; in data set [8] (male, intranasal 1.0 mg/kg), “NTR NTR”; in [8] (male, intranasal 5.0 mg/kg), “NTR NTR”. The “Inflammation at Nostrils” value in [8] (female, intranasal 0.2 mg/kg every two days during 7 days) is recorded as “No No”; in data set [8] (female, intranasal 1.0 mg/kg every two days during 7 days), “No No”; in data set [8] (female, intranasal 5.0 mg/kg every two days during 7 days), “No No”; in data set [8] (male, intranasal 0.2 mg/kg every two days during 7 days), “No No”; in [8] (male, intranasal 1.0 mg/kg every two days during 7 days), “No No”; in [8] (male, intranasal 5.0 mg/kg every two days during 7 days), “No No”. Besides, the “Body Weight (Day 7)” value was found to be 189.46 ± 15.15 in data set [8] (female, intranasal 0.2 mg/kg); 191.03 ± 3.13 in data set [8] (female, intranasal 1.0 mg/kg); 185.70 ± 5.77 in data set [8] (female, intranasal 5.0 mg/kg); 248.94 ± 8.51 in [8] (male, intranasal 0.2 mg/kg); 252.26 ± 5.77 in data set [8] (male, intranasal 1.0 mg/kg); 250.90 ± 5.68 in data set [8] (male, intranasal 5.0 mg/kg).
Regarding “NGF: therapeutic peptide delivered to the brain via the intranasal route, 120 aa”, in [1], the pHi is 9.0.
Regarding “RGGRLAYLRRRWAVLGR [synB5, reference compound]”, the “Transendothelial transport through the blood–brain barrier” value in [2] is on record as “efficiently crossed the blood–brain barrier”.
Turning to RRLSYSRRRF [synB3, reference compound], the “Transendothelial transport through the blood–brain barrier” value in data set [2] was “efficiently crossed the blood–brain barrier”.
Take “TGF-β: therapeutic peptide delivered to the brain via the intranasal route, 112 aa”: the pHi in data set [1] is reported as 8.6.
For “VIP: therapeutic peptide delivered to the brain via the intranasal route, 28 aa [reference compound]”, the pHi in data set [1] was 9.8.
For the substance Vasopressin [reference compound], the pHi in data set [1] was 8.0.

(Values after article PMC9654333, “AmyP53, a Therapeutic Peptide Candidate for the Treatment of Alzheimer’s and Parkinson’s Disease: Safety, Stability, Pharmacokinetics Parameters and Nose-to Brain Delivery” (International Journal of Molecular Sciences, 2022).)
